Laboratory results reported in US20050182036A1, “Medicinal composition containing an HMG-CoA reductase inhibitor” (SANKYO COMPANY, LIMITED, priority 2002, published 2005).

Experiments:
Type in all cases: in vivo
[1] = test system: blood concentration of total nitric oxides (NOx); test: Blood total nitric oxides (NOx) level in Beagle dogs after 11-day oral administration, NO3- + NO2- by HPLC; settings: male Beagle dogs, oral once daily, relative to pre-treatment average = 100, mean of 5 dogs
Text: Simvastatin and atorvastatin synthesized at Chemtech Labo., Inc. were used. Gamma-oryzanol was purchased from Riken Vitamin Co., Ltd. and used. Benfotiamine manufactured at Sankyo Co., Ltd. was used.
Male Beagle dogs of 5 months of age were purchased from Covance Research Products Inc. as the test animals and were used after accommodation breeding for approximately 5 months.
The required amount of the test substance calculated based on the body weight of the test animals was weighed and filled in gelatin capsules (TORPAC Inc., 1/2 oz). After filling up, the capsules were placed in a box divided up for every animal and stored under freezing until use.
The capsules filled up with the test substance were orally administered to the test animals once daily via an oral gavage between 9:00-12:30. The test animals were fasted for 2-3 hrs prior to each administration. The administration period was 11 days.
Approximately 10 mL of blood was collected from the cephalic vein of each dog on—14 and—7 day (the 1st and the 2nd week prior to administration) as well as 4, 8, and 12 days after administration. The animals were fasted for approximately 18 hrs before collection of the blood.
The collected blood was placed in a test tube and allowed to stand at room temperature for 30 min to 1 hour. Then the blood was centrifuged (approximately 1,600 g, for 10 min) and the resultant serum obtained was used for assays.
Nitric oxide synthesized by nitric oxide synthase (NOS) is rapidly converted to nitrate ion (NO3^−) and nitrite ion (NO2^−). Blood concentration of total nitric oxides (NOx) is represented by the sum of NO3^− and NO2^− assayed by HPLC.
Relative values of blood concentration of total nitric oxides (NOx) in animals treated with each dose of simvastatin or atorvastatin calcium, gamma-oryzanol, and benfotiamine alone as well as their medicinal compositions as described above were calculated against each converted average value calculated from that determined 2 weeks and one week before treatment into 100.

[2] = Blood total cholesterol level in Beagle dogs after 11-day oral administration, enzymatic assay; settings: male Beagle dogs, oral once daily, relative to pre-treatment average = 100, mean of 5 dogs, mg/Kg: gamma-oryzanol 100, simvastatin 1
Text: (§1) Simvastatin and atorvastatin synthesized at Chemtech Labo., Inc. were used. Gamma-oryzanol was purchased from Riken Vitamin Co., Ltd. and used. Benfotiamine manufactured at Sankyo Co., Ltd. was used. Male Beagle dogs of 5 months of age were purchased from Covance Research Products Inc. as the test animals and were used after accommodation breeding for approximately 5 months. The required amount of the test substance calculated based on the body weight of the test animals was weighed and filled in gelatin capsules (TORPAC Inc., 1/2 oz). After filling up, the capsules were placed in a box divided up for every animal and stored under freezing until use. The capsules filled up with the test substance were orally administered to the test animals once daily via an oral gavage between 9:00-12:30. The test animals were fasted for 2-3 hrs prior to each administration. The administration period was 11 days. […] The animals were fasted for approximately 18 hrs before collection of the blood. […] In addition, total cholesterol content was assayed by enzymatic assay method while HDL, LDL, and triglyceride were determined by homogeneous method, chemically modified method, and enzymatic techniques, respectively. ALP was assayed by Bessey-Lowry method. Clinical Laboratory System (TBA-120FR, Toshiba Medical Systems Corporation) was used in all of these determinations. […] The values indicate average results calculated from 5 dogs per group.

[3] = Blood LDL level in Beagle dogs after 11-day oral administration; settings: male Beagle dogs, oral once daily, relative to pre-treatment average = 100, mean of 5 dogs, mg/Kg: gamma-oryzanol 100, simvastatin 1
Text: as §1

[4] = Atherosclerosis index (LDL/HDL) in Beagle dogs after 11-day oral administration; settings: male Beagle dogs, oral once daily, relative to pre-treatment average = 100, mean of 5 dogs, mg/Kg: gamma-oryzanol 100, simvastatin 1
Text: as §1

[5] = 4 Days after treatment, mg/Kg: benfotiamine 50, simvastatin 1, atorvastatin calcium 2
[6] = 8 Days after treatment, mg/Kg: benfotiamine 50, simvastatin 1, atorvastatin calcium 2
[7] = 12 Days after treatment, mg/Kg: benfotiamine 50, simvastatin 1, atorvastatin calcium 2

Compound | Changes in blood NOx levels (%) [1, 5] | Changes in blood NOx levels (%) [1, 6] | Changes in blood NOx levels (%) [1, 7] | Changes in blood NOx levels (%) ([1]; 4 Days after treatment, mg/Kg: gamma-oryzanol 100, simvastatin 1) | Changes in blood NOx levels (%) ([1]; 8 Days after treatment, mg/Kg: gamma-oryzanol 100, simvastatin 1) | Changes in blood NOx levels (%) ([1]; 12 Days after treatment, mg/Kg: gamma-oryzanol 100, simvastatin 1) | Changes in blood total cholesterol levels (%) ([2]; 4 Days after treatment) | Changes in blood total cholesterol levels (%) ([2]; 8 Days after treatment) | Changes in blood total cholesterol levels (%) ([2]; 12 Days after treatment) | Changes in blood LDL levels (%) ([3]; 4 Days after treatment) | Changes in blood LDL levels (%) ([3]; 8 Days after treatment) | Changes in blood LDL levels (%) ([3]; 12 Days after treatment) | Changes in atherosclerosis index (LDL/HDL) (%) ([4]; 4 Days after treatment) | Changes in atherosclerosis index (LDL/HDL) (%) ([4]; 8 Days after treatment) | Changes in atherosclerosis index (LDL/HDL) (%) ([4]; 12 Days after treatment)
CC(C)c1c(C(=O)Nc2ccccc2)c(-c2ccccc2)c(-c2ccc(F)cc2)n1CC[C@H](O)C[C@@H](O)CC(=O)O [Atorvastatin calcium, (3R,5S)-7-[2-(4-fluorophenyl)-5-(1-methylethyl)-3-phenyl-4-phenylaminocarbonyl-1H-pyrrol-1-yl]-3,5-dihydroxyheptanoic acid] | 117.7% | 114.1% | 117.9% | – | – | – | – | – | – | – | – | – | – | – | –
C/C(=C(\CCOP(=O)(O)O)SC(=O)c1ccccc1)N(C=O)Cc1cnc(C)nc1N [Benfotiamine] | 96.4% | 91.6% | 107.1% | – | – | – | – | – | – | – | – | – | – | – | –
CCC(C)(C)C(=O)O[C@H]1C[C@@H](C)C=C2C=C[C@H](C)[C@H](CC[C@@H]3C[C@@H](O)CC(=O)O3)[C@H]21 [Simvastatin, (+)-(1S,3R,7S,8S,8aR)-1,2,3,7,8,8a-hexahydro-3,7-dimethyl-8-[2-[ (2R,4R)-tetrahydro-4-hydroxy-6-oxo-2H-pyran-2-yl]ethyl]-1-naphthyl 2,2-dimethylbutyrate] | 101.6% | 85.5% | 121.9% | 101.6% | 85.5% | 121.9% | 94.8% | 94.1% | 92.4% | 83.9% | 90.4% | 81.3% | 86.6% | 93.8% | 86.3%
